11 molecules from ChEMBL document CHEMBL1137885, “P4 and P1' optimization of bicycloproline P2 bearing tetrapeptidyl alpha-ketoamides as HCV protease inhibitors” (Bioorg Med Chem Lett, 2004) can be followed below.

SMILES strings stand for the structures.

One assay addresses Cathepsin B (Homo sapiens, UniProt P07858). Put plainly: Binding affinity towards human cathepsin B.
The target of another assay is Procathepsin L (Homo sapiens, UniProt P07711). Put plainly: Selectivity for HCV NS3 over human cathepsin L.
Sequence of Procathepsin L (P07711 whole entry): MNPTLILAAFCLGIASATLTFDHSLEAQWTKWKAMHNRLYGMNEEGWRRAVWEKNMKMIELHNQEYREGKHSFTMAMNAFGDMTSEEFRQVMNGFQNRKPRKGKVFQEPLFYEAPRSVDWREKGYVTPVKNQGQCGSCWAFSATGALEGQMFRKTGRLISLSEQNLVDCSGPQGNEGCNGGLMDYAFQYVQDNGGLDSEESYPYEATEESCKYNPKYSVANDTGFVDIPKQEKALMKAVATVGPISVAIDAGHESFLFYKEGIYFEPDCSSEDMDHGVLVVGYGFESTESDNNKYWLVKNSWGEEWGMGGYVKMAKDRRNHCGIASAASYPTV
Assay [1] is described as follows: Selectivity for HCV NS3 over human elastase.
The target in the next assay is NS3 (Hepatitis C virus, UniProt A3EZJ3). Put plainly: Inhibition of HCV NS3 protease in the pNA based inhibition assay. Also on record: species or system Hepacivirus hominis.
Sequence of NS3 (A3EZJ3 whole entry): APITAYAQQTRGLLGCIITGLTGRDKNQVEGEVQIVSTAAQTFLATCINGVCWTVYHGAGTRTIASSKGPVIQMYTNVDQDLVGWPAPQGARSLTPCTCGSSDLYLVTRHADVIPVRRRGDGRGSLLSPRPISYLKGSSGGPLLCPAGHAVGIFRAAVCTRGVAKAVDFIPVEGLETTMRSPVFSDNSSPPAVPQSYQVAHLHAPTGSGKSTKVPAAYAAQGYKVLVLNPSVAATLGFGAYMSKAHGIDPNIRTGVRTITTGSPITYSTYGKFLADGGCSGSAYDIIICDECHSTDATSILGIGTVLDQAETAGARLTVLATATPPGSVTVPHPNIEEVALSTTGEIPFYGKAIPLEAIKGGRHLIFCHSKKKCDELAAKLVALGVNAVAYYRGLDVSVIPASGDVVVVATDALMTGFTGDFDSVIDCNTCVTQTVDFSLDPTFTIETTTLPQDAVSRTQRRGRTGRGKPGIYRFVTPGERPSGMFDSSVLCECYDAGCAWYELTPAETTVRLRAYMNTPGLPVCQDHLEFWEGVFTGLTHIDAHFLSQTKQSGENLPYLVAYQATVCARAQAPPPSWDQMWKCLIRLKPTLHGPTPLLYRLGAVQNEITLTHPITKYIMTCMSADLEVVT
In a further assay the target is Plasminogen (Homo sapiens, UniProt P00747). Put plainly: Binding affinity towards human plasmin.
Sequence of Plasminogen (P00747 97-580 limits assumed): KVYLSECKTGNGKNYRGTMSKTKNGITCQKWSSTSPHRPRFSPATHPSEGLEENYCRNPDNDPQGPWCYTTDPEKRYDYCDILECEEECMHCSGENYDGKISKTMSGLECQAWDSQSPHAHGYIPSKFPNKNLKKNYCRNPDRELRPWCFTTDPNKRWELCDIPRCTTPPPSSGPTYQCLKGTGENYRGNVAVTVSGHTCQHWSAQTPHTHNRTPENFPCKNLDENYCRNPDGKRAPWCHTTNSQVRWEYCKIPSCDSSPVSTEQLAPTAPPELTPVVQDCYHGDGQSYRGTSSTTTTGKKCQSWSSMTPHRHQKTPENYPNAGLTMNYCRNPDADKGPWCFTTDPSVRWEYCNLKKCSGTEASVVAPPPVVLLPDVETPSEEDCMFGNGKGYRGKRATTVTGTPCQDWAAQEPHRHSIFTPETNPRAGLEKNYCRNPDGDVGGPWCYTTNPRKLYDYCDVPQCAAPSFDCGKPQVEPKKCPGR
Sequence of Plasminogen (P00747 581-810 limits assumed): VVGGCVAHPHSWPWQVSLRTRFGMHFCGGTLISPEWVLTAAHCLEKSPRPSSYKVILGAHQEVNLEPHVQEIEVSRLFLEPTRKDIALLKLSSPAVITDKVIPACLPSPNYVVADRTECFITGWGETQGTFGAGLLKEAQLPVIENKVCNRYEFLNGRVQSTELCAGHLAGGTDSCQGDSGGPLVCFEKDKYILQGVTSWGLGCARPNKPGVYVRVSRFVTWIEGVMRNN
Another assay concerns the target Trypsin (Homo sapiens, UniProt P07477+P07478+P35030). Put plainly: Binding affinity towards human trypsin. Type of assay: protein assay.
Assay [2] relates to Huh-7. Put plainly: Ratio of CC50 to that of IC50 value. Type of assay: functional, Homo sapiens.
A further assay deals with Prothrombin (Homo sapiens, UniProt P00734). Put plainly: Binding affinity towards human thrombin.
In the next assay the test system is Hepatitis C virus. Put plainly: Inhibitory concentration against hepatitis C virus in replicon assay. Type of assay: functional, organism-based, Hepacivirus hominis.
Assay [3] relates to Huh-7. Put plainly: Cytotoxic concentration against Huh-7 liver cells in XTT cytotoxicity assay. Type of assay: functional. As to conditions: Homo sapiens.
The target of a further assay is Plasma kallikrein (Homo sapiens, UniProt P03952). Put plainly: Binding affinity towards human kallikrein.
Sequence of Plasma kallikrein (P03952 20-390 limits assumed): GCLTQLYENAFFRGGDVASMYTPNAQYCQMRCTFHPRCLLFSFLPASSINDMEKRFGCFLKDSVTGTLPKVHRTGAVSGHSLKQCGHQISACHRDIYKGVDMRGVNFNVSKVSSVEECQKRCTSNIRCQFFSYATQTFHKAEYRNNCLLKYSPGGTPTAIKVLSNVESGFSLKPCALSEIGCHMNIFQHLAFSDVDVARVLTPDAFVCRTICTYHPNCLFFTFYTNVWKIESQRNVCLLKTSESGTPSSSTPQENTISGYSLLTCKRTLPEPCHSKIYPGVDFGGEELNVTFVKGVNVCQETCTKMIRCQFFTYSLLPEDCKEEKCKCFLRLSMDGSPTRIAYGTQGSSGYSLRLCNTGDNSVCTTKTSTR
Sequence of Plasma kallikrein (P03952 391-638 limits assumed): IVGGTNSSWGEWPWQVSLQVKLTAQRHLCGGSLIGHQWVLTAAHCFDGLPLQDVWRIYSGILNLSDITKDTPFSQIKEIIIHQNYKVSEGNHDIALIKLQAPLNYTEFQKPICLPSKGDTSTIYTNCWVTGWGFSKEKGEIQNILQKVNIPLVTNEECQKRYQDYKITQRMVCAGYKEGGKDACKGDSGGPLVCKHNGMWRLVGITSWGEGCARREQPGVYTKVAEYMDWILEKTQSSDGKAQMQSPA
The next assay concerns the target Chymotrypsinogen B (Homo sapiens, UniProt P17538). Put plainly: Binding affinity towards human Chymotrypsinogen.

Sequence of Chymotrypsinogen B (P17538 34-164 limits assumed, other chains not shown): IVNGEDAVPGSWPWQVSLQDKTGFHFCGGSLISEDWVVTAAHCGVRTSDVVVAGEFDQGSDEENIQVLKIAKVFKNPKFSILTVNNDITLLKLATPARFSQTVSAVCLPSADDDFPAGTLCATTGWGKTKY
Sequence of Chymotrypsinogen B (P17538 167-263 limits assumed, other chains not shown): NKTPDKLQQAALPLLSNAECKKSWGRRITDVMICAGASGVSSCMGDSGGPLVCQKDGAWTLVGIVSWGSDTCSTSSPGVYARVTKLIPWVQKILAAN

As to `CCCC(NC(=O)[C@@H]1C2CCCC2CN1C(=O)[C@@H](NC(=O)[C@@H](NC(=O)c1cnccn1)C1CCCCC1)C(C)(C)C)C(=O)C(=O)N[C@H](C)c1ccccc1` (stereo partly drawn), the Ki was 283 µM at Cathepsin B; 0.09 µM at NS3; more than 50 µM at Plasminogen; more than 50 µM on Trypsin; more than 50 µM on Prothrombin; more than 50 µM at Plasma kallikrein. Besides, the inhibitory constant (Ki) on Chymotrypsinogen B was more than 50 µM. Further, the selectivity ratio at Procathepsin L was 51; in assay [1], 29. For the same molecule, in the assay on Huh-7 [2], the Ratio is listed as 105. Also, in the assay with Hepatitis C virus, it took 0.21 µM to reach half-maximal inhibition (IC50). The CC50 in the assay with Huh-7 [3] came to 22 µM.
On to `CCCC(NC(=O)[C@@H]1C2CCCC2CN1C(=O)[C@@H](NC(=O)[C@@H](NC(=O)c1cnccn1)C1CCCCC1)C(C)(C)C)C(=O)C(=O)NC[C@@H](C)CC` (stereo partly drawn), for which affinity on NS3 was put at a Ki of 0.25 µM. The Ratio with Huh-7 [2] was 32. Moreover, it took 1 µM to reach half-maximal inhibition in the assay with Hepatitis C virus (IC50). In the assay with Huh-7 [3], this molecule gave a CC50 of 31.7 µM.
As for `CCCC(NC(=O)[C@@H]1C2CCCC2CN1C(=O)[C@@H](NC(=O)[C@@H](NC(=O)c1cnccn1)C1CCCCC1)C(C)(C)C)C(=O)C(=O)N[C@H](C)CC` (stereo partly drawn), the Ki is 13 µM on Cathepsin B; 0.08 µM at NS3; more than 50 µM at Plasminogen; more than 50 µM at Trypsin; more than 50 µM on Prothrombin; more than 50 µM at Plasma kallikrein. In addition, the inhibition constant (Ki) at Chymotrypsinogen B is more than 50 µM. The results for the selectivity ratio (on Procathepsin L; in assay [1]) were 107 and 81, respectively. The Ratio in the assay on Huh-7 [2] stood at 65. The molecule also displayed an IC50 with Hepatitis C virus of 1.07 µM. The molecule further registered a CC50 with Huh-7 [3] of 69.2 µM.
Consider `CCCC(NC(=O)[C@@H]1C2CCCC2CN1C(=O)[C@@H](NC(=O)[C@H](CC1CCCCC1)NC(=O)c1cnccn1)C(C)(C)C)C(=O)C(=O)NC1CC1` (stereo partly drawn), for which the Ki on NS3 was 0.65 µM. In addition, the Ratio in the assay with Huh-7 [2] is listed as 16. The same molecule returned an IC50 in the assay with Hepatitis C virus of 2.81 µM. For the same molecule, the CC50 in the assay on Huh-7 [3] came to 45.5 µM.
As for `CC(C)(C)[C@H](NC(=O)[C@@H](NC(=O)c1cnccn1)C1CCCCC1)C(=O)N1CC2CCCC2[C@H]1C(=O)NC(CC(F)F)C(=O)C(=O)NC1CC1` (stereo partly drawn), the Ki on Cathepsin B is 40 µM; on NS3, 0.02 µM; at Plasminogen, more than 50 µM; on Trypsin it was more than 50 µM; on Prothrombin it was more than 50 µM; at Plasma kallikrein, more than 50 µM. At Chymotrypsinogen B, this molecule registered an inhibition constant Ki of more than 50 µM. The selectivity ratio at Procathepsin L was 760; in assay [1], 392. The Ratio in the assay on Huh-7 [2] came to 250. For the same molecule, the IC50 in the assay with Hepatitis C virus was 0.4 µM. The same molecule had a CC50 in the assay on Huh-7 [3] of more than 100 µM.
As for `CCC[C@H](NC(=O)[C@@H]1C2CCCC2CN1C(=O)[C@@H](NC(=O)[C@@H](NC(=O)c1cnccn1)[C@@H](C)CC)C(C)(C)C)C(=O)C(=O)NC1CC1` (stereo partly drawn), the Ki on Cathepsin B is 10 µM; on NS3, 0.08 µM; at Plasminogen it was more than 50 µM; on Trypsin, more than 50 µM; at Prothrombin, more than 50 µM; at Plasma kallikrein, more than 50 µM. At Chymotrypsinogen B, this molecule displayed a Ki of more than 50 µM. In addition, the selectivity ratio on Procathepsin L was found to be 15; in [1] it was 36. Also, in the assay on Huh-7 [2], the Ratio was more than 69. Inhibition in the assay on Hepatitis C virus was half-maximal at 1.44 µM (IC50). This molecule also returned a CC50 with Huh-7 [3] of more than 100 µM.
Turning to `CCC[C@H](NC(=O)[C@@H]1C2CCCC2CN1C(=O)[C@@H](NC(=O)[C@@H](NC(=O)c1cnccn1)c1ccccc1)C(C)(C)C)C(=O)C(=O)NC1CC1` (stereo partly drawn), the affinity at NS3, expressed as Ki, was 0.65 µM. In addition, the Ratio in the assay with Huh-7 [2] is listed as 21. In addition, half-maximal inhibition in the assay with Hepatitis C virus (IC50) required 2.81 µM. Also, in the assay with Huh-7 [3], the CC50 was 58.6 µM.
For the molecule `CCC[C@H](NC(=O)[C@@H]1C2CCCC2CN1C(=O)[C@@H](NC(=O)[C@@H](NC(=O)c1cnccn1)C(C)(C)C)C(C)(C)C)C(=O)C(=O)NC1CC1` (stereo partly drawn), the Ki was 3.9 µM at Cathepsin B; 0.16 µM at NS3; more than 50 µM at Plasminogen; more than 50 µM at Trypsin; more than 50 µM on Prothrombin; more than 50 µM on Plasma kallikrein. Also, the inhibitory constant (Ki) on Chymotrypsinogen B was more than 50 µM. Further, the selectivity ratio was found to be 123 at Procathepsin L and 102 in assay [1]. The Ratio in the assay with Huh-7 [2] is recorded as more than 77. The midpoint of inhibition in the assay on Hepatitis C virus, the IC50, lay at 1.29 µM. In the assay on Huh-7 [3], this molecule had a 50% cytotoxic concentration (CC50) of more than 100 µM.
As for `CCC[C@H](NC(=O)[C@@H]1C2CCCC2CN1C(=O)[C@@H](NC(=O)[C@@H](NC(=O)c1cnccn1)[C@@H](C)OC)C(C)(C)C)C(=O)C(=O)NC1CC1` (stereo partly drawn), the inhibitory constant (Ki) at Cathepsin B is 7.3 µM; at NS3, 0.15 µM; on Plasminogen, more than 50 µM; on Trypsin, more than 50 µM; on Prothrombin, more than 50 µM; at Plasma kallikrein it was more than 50 µM. Moreover, on Chymotrypsinogen B, the inhibition constant (Ki) was more than 50 µM. Also, the selectivity ratio came out at 146 on Procathepsin L and 126 in assay [1]. Besides, in the assay on Huh-7 [2], the Ratio is recorded as more than 22. Besides, half-maximal inhibition in the assay on Hepatitis C virus (IC50) was put at 4.35 µM. Also, the cytotoxic concentration (CC50) in the assay on Huh-7 [3] is more than 100 µM.
For `CCCC(NC(=O)[C@@H]1[C@H]2CCC[C@H]2CN1C(=O)[C@@H](NC(=O)[C@@H](NC(=O)c1cnccn1)C1CCCCC1)C(C)(C)C)C(=O)C(=O)NC1CC1` (stereo partly drawn), the Ki on Cathepsin B is 3 µM; on NS3 it was 0.07 µM; at Plasminogen, more than 50 µM; at Trypsin it was more than 50 µM; at Prothrombin, more than 50 µM; on Plasma kallikrein it was more than 50 µM. The Ki on Chymotrypsinogen B is more than 50 µM. Moreover, the selectivity ratio came to 134 at Procathepsin L and 62 in [1]. The Ratio with Huh-7 [2] came to 157. In the assay on Hepatitis C virus, this molecule gave a half-maximal inhibitory concentration (IC50) of 0.55 µM. The same molecule registered a CC50 with Huh-7 [3] of 86.5 µM.
As to `CCCC(NC(=O)[C@@H]1[C@H]2CCC[C@H]2CN1C(=O)[C@@H](NC(=O)[C@@H](NC(=O)c1cnccn1)C(C)C)C(C)(C)C)C(=O)C(=O)NC1CC1` (stereo partly drawn), the inhibition constant Ki is 1.6 µM on Cathepsin B; more than 50 µM on Plasminogen; more than 50 µM on Trypsin; more than 50 µM on Prothrombin; more than 50 µM on Plasma kallikrein; more than 50 µM on Chymotrypsinogen B. The molecule further registered a CC50 with Huh-7 [3] of more than 100 µM.

The Ki is the equilibrium dissociation constant of an inhibitor or competing ligand from its target. Read a low Ki as higher affinity. The term IC50 denotes the concentration that gives 50% inhibition. Usually CC50 stands for the concentration giving 50% cytotoxicity.
